Like-named read-outs stand apart in the source and are kept apart here.
What was measured:
P. falciparum 3D7 = assay: [3H]-hypoxanthine growth inhibition, modified HCO3- or O2; type: cell-based; settings: for IC50: Plasmodium falciparum
[1] = tested on: P. falciparum 3D7 trophozoites; assay: Metabolomic fingerprint profiling LC-MS; type: cell-based, Plasmodium falciparum; parameters: UDP-D-glucose / ADP-D-glucose: unit not given here; settings: for Acetyllysine / N-acetyl-L-ornithine / N-carbamoyl-L-aspartate / NADPH / dAMP / dCMP / dTDP / dTMP / dTTP / dihydroorotate / orotate / DLH / DLS/SDL/SID / PD / PEE / PVNF / 3-phosphoglycerate / ADP-D-glucose / ATP / CDP / D-sedoheptulose-1/7-phosphate / FAD / GMP / NAD+ / NADP+ / Octoluse Bisphosphate / Pyroglutamic acid / UDP-D-glucose / UDP-D-glucuronate / UDP-N-acetyl-glucosamine / UDP / UMP / UTP / a-ketoglutarate / citrate/isocitrate / cytidine / dATP / dGMP/AMP / fumarate / glucose-1/6-phosphate / glycerate / guanine / guanosine / hypoxanthine / indole / inosine / nicotinate / ornithine / phosphoenolpyruvate / pyruvate / ribose-phosphate / sarcosine/alanine / sn-glycerol-3-phosphate / succinate/methylmalonic acid / uridine / xanthosine: S2 Table Metabolomics; for Acetyllysine: metabolite Acetyllysine; for N-acetyl-L-ornithine: metabolite N-acetyl-L-ornithine; for N-carbamoyl-L-aspartate: metabolite N-carbamoyl-L-aspartate; for NADPH: metabolite NADPH; for dAMP: metabolite dAMP; for dCMP: metabolite dCMP; for dTDP: metabolite dTDP; for dTMP: metabolite dTMP; for dTTP: metabolite dTTP; for dihydroorotate: metabolite dihydroorotate; for orotate: metabolite orotate; for DLH: peptide DLH; for DLS/SDL/SID: peptide DLS/SDL/SID; for PD: peptide PD; for PEE: peptide PEE; for PVNF: peptide PVNF; for 3-phosphoglycerate: metabolite 3-phosphoglycerate; for ADP-D-glucose: metabolite ADP-D-glucose; for ATP: metabolite ATP; for CDP: metabolite CDP; for CDP / D-sedoheptulose-1/7-phosphate / GMP / Octoluse Bisphosphate / UDP / UMP / UTP / citrate/isocitrate / dGMP/AMP / fumarate / glucose-1/6-phosphate / glycerate / guanine / guanosine / inosine / pyruvate / sarcosine/alanine / succinate/methylmalonic acid / uridine / xanthosine: change in metabolite level after compound treatment; for D-sedoheptulose-1/7-phosphate: metabolite D-sedoheptulose-1/7-phosphate; for FAD: metabolite FAD; for GMP: metabolite GMP; for NAD+: metabolite NAD+; for NADP+: metabolite NADP+; for Octoluse Bisphosphate: metabolite Octoluse Bisphosphate; for Pyroglutamic acid: metabolite Pyroglutamic acid; for UDP-D-glucose: metabolite UDP-D-glucose; for UDP-D-glucuronate: metabolite UDP-D-glucuronate; for UDP-N-acetyl-glucosamine: metabolite UDP-N-acetyl-glucosamine; for UDP: metabolite UDP; for UMP: metabolite UMP; for UTP: metabolite UTP; for a-ketoglutarate: metabolite a-ketoglutarate; for citrate/isocitrate: metabolite citrate/isocitrate; for cytidine: metabolite cytidine; for dATP: metabolite dATP; for dGMP/AMP: metabolite dGMP/AMP; for fumarate: metabolite fumarate; for glucose-1/6-phosphate: metabolite glucose-1/6-phosphate; for glycerate: metabolite glycerate; for guanine: metabolite guanine; for guanosine: metabolite guanosine; for hypoxanthine: metabolite hypoxanthine; for indole: metabolite indole; for inosine: metabolite inosine; for 2_3-Diphosphoglyceric acid / 4-phosphopantothenate / 6-phospho-D-gluconate / FMN / IMP / Pyrophosphate / Sedoheptoluse bisphosphate / cyclic-AMP / glutathione disulfide / lactate / myo-inositol: metabolite level change after treatment; for nicotinate: metabolite nicotinate; for ornithine: metabolite ornithine; for phosphoenolpyruvate: metabolite phosphoenolpyruvate; for pyruvate: metabolite pyruvate; for ribose-phosphate: metabolite ribose-phosphate; for sarcosine/alanine: metabolite sarcosine/alanine; for sn-glycerol-3-phosphate: metabolite sn-glycerol-3-phosphate; for succinate/methylmalonic acid: metabolite succinate/methylmalonic acid; for uridine: metabolite uridine; for xanthosine: metabolite xanthosine
P. falciparum = assay: EC50 listed in S2 Table Metabolomics (used to set the concentration tested); type: cell-based; settings: Plasmodium falciparum; EC50 used for Factor_XEC50 in metabolomics; read-out: EC50_nM
[2] = 3D7, read-out: P. falciparum 3D7 IC50 1% O2, 1% O2 hypoxia
[3] = 3D7, read-out: P. falciparum 3D7 IC50 5% O2

Structure (SMILES): CCCc1c(CC)c(=N)c2ccccc2n1C [MMV008416]
- fold change (IC50normal/ IC50hypoxia) (P. falciparum 3D7): 6.1
- IC50 (P. falciparum 3D7; [2]): 0.065 µM
- IC50 (P. falciparum 3D7; [3]): 0.397 µM
- Acetyllysine [1]: 0.2915
- N-acetyl-L-ornithine [1]: 0.3364
- N-carbamoyl-L-aspartate [1]: 0.3652
- NADPH [1]: 0.8856
- dAMP [1]: 0.5762
- dCMP [1]: 3.613
- dTDP [1]: 0.4591
- dTMP [1]: 0.9083
- dTTP [1]: 0.4804
- dihydroorotate [1]: 0.2294
- orotate [1]: -0.1417
- DLH [1]: -1.006
- DLS/SDL/SID [1]: 0.3509
- PD [1]: 0.4359
- PEE [1]: -0.9814
- PVNF [1]: 0.2215
- 3-phosphoglycerate [1]: -0.02776
- ADP-D-glucose [1]: 0.4196
- ATP [1]: 0.6896
- CDP [1]: 0.2951
- D-sedoheptulose-1/7-phosphate [1]: -0.3684
- FAD [1]: 0.5238
- GMP [1]: 0.02334
- NAD+ [1]: 0.4432
- NADP+ [1]: 0.7628
- Octoluse Bisphosphate [1]: 0.3902
- Pyroglutamic acid [1]: -0.3783
- UDP-D-glucose [1]: 0.135
- UDP-D-glucuronate [1]: -0.2053
- UDP-N-acetyl-glucosamine [1]: 0.4341
- UDP [1]: 0.7261
- UMP [1]: -0.1733
- UTP [1]: 0.4819
- a-ketoglutarate [1]: 0.04368
- citrate/isocitrate [1]: -1.579
- cytidine [1]: 0.4905
- dATP [1]: 0.253
- dGMP/AMP [1]: 0.3177
- fumarate [1]: -0.39
- glucose-1/6-phosphate [1]: 2.308
- glycerate [1]: 0.1238
- guanine [1]: 0.3854
- guanosine [1]: -0.8003
- hypoxanthine [1]: 0.09764
- indole [1]: 0.1467
- inosine [1]: -0.1012
- 2_3-Diphosphoglyceric acid [1]: 0.2083
- 4-phosphopantothenate [1]: 0.7504
- 6-phospho-D-gluconate [1]: 0.5606
- FMN [1]: 0.7862
- IMP [1]: 0.4308
- Pyrophosphate [1]: -0.6119
- Sedoheptoluse bisphosphate [1]: 0.3141
- cyclic-AMP [1]: 0.6453
- glutathione disulfide [1]: 0.5116
- lactate [1]: 1.188
- myo-inositol [1]: 2.818
- nicotinate [1]: -0.5574
- ornithine [1]: -0.1174
- phosphoenolpyruvate [1]: -0.4016
- pyruvate [1]: 0.4708
- ribose-phosphate [1]: 0.2759
- sarcosine/alanine [1]: 0.4883
- sn-glycerol-3-phosphate [1]: 0.06223
- succinate/methylmalonic acid [1]: -0.5916
- uridine [1]: 0.398
- xanthosine [1]: -0.8913
- EC50 (P. falciparum): 0.242 µM

Structure (SMILES): Cc1cc(Nc2ccc(Cl)cc2)n2nc(C(F)(F)F)nc2n1 [MMV011256]
- fold change (IC50normal/ IC50hypoxia) (P. falciparum 3D7): 5.0
- IC50 (P. falciparum 3D7; [2]): 0.07 µM
- IC50 (P. falciparum 3D7; [3]): 0.349 µM
- Acetyllysine [1]: -0.5963
- N-acetyl-L-ornithine [1]: -0.507
- N-carbamoyl-L-aspartate [1]: 4.681
- NADPH [1]: 1.178
- dAMP [1]: -1.417
- dCMP [1]: 0.2248
- dTDP [1]: -0.9712
- dTMP [1]: -0.998
- dTTP [1]: -0.8663
- dihydroorotate [1]: 5.399
- orotate [1]: -0.2345
- DLH [1]: -0.3185
- DLS/SDL/SID [1]: -0.4128
- PD [1]: 0.2516
- PEE [1]: -0.4695
- PVNF [1]: -1.475
- 3-phosphoglycerate [1]: 0.08815
- ADP-D-glucose [1]: 0.5309
- ATP [1]: -0.05125
- CDP [1]: -0.6896
- D-sedoheptulose-1/7-phosphate [1]: 0.1853
- FAD [1]: 0.084
- GMP [1]: 0.2583
- NAD+ [1]: 0.00935
- NADP+ [1]: 0.5726
- Octoluse Bisphosphate [1]: 0.02106
- Pyroglutamic acid [1]: -0.3979
- UDP-D-glucose [1]: 0.01111
- UDP-D-glucuronate [1]: -0.02444
- UDP-N-acetyl-glucosamine [1]: -0.1642
- UDP [1]: -0.997
- UMP [1]: -0.7924
- UTP [1]: -1.308
- a-ketoglutarate [1]: -0.5125
- citrate/isocitrate [1]: -0.4219
- cytidine [1]: -0.1943
- dATP [1]: 0.3626
- dGMP/AMP [1]: 0.01292
- fumarate [1]: -0.2283
- glucose-1/6-phosphate [1]: -0.259
- glycerate [1]: -0.6701
- guanine [1]: 0.06677
- guanosine [1]: 0.3651
- hypoxanthine [1]: -0.6973
- indole [1]: -0.3061
- inosine [1]: -0.4425
- 2_3-Diphosphoglyceric acid [1]: 0.2246
- 4-phosphopantothenate [1]: -0.3914
- 6-phospho-D-gluconate [1]: 0.1976
- FMN [1]: -0.1065
- IMP [1]: 0.1475
- Pyrophosphate [1]: 0.2465
- Sedoheptoluse bisphosphate [1]: 0.08943
- cyclic-AMP [1]: -0.1063
- glutathione disulfide [1]: 0.192
- lactate [1]: -0.653
- myo-inositol [1]: -1.111
- nicotinate [1]: -0.2929
- ornithine [1]: 0.09761
- phosphoenolpyruvate [1]: 0.0459
- pyruvate [1]: -0.6078
- ribose-phosphate [1]: -0.1179
- sarcosine/alanine [1]: 0.2817
- sn-glycerol-3-phosphate [1]: -0.0008256
- succinate/methylmalonic acid [1]: 0.03166
- uridine [1]: -0.902
- xanthosine [1]: 0.002012
- EC50 (P. falciparum): 0.212 µM

Reference: paper PMC4965013, “Open Source Drug Discovery with the Malaria Box Compound Collection for Neglected Diseases and Beyond” (PLoS Pathogens, 2016)
